Laboratory results from patent publication US12144795B2, “Cannabidiol compositions having modified cannabinoid profiles” (priority 2018, dated 2024).

Assay: Stability studies of CBD prepared via Protocol 3 (crude, pure, 2x recrystallized; 5° C., 25° C./60% RH, 40° C./75% RH)
Type: physicochemical

C=C(C)[C@@H]1CCC(C)=C[C@H]1c1c(O)cc(CCCCC)cc1O [Crude CBD]
Appearance (25° C./60% RH, 0 month): White
Assay by HPLC (25° C./60% RH, 0 month): 99.9%
Each unspecified impurity: RRT~1.540 (25° C./60% RH, 0 month): 0.06%
Each unspecified impurity: RRT~1.690 (25° C./60% RH, 0 month): 0.11%
Related substances by HPLC (low level): Δ9-Tetrahydrocannabinol (25° C./60% RH, 0 month): 26 ppm
Related substances by HPLC: 4-Monobromo-CBD (25° C./60% RH, 0 month): <0.03% (0.02%)
Related substances by HPLC: Olivetol (25° C./60% RH, 0 month): <0.03% (ND)
Related substances by HPLC: Sum of impurities, ≥0.05% (25° C./60% RH, 0 month): 0.17%
Related substances by HPLC: Δ9-Tetrahydrocannabinol (25° C./60% RH, 0 month): <0.02% (ND)
Appearance (25° C./60% RH, 1 month): Off-White
Assay by HPLC (25° C./60% RH, 1 month): 98.2%
Each unspecified impurity: RRT~1.927 (25° C./60% RH, 1 month): 0.07%
Each unspecified impurity: RRT~2.146 (25° C./60% RH, 1 month): 0.12%
Related substances by HPLC (low level): Δ8-Tetrahydrocannabinol (25° C./60% RH, 1 month): 6 ppm
Related substances by HPLC (low level): Δ9-Tetrahydrocannabinol (25° C./60% RH, 1 month): 29 ppm
Related substances by HPLC: 4-Monobromo-CBD (25° C./60% RH, 1 month): <0.03% (0.02)
Related substances by HPLC: Olivetol (25° C./60% RH, 1 month): <0.03% (ND)
Related substances by HPLC: Sum of impurities, ≥0.05% (25° C./60% RH, 1 month): 0.19%
Related substances by HPLC: Δ8-Tetrahydrocannabinol (25° C./60% RH, 1 month): <0.02% (ND)
Related substances by HPLC: Δ9-Tetrahydrocannabinol (25° C./60% RH, 1 month): <0.02% (ND)
Appearance (25° C./60% RH, 2 months): Off-White
Assay by HPLC (25° C./60% RH, 2 months): 99.5%
Each unspecified impurity: RRT~1.931 (25° C./60% RH, 2 months): 0.06%
Each unspecified impurity: RRT~2.151 (25° C./60% RH, 2 months): 0.09%
Related substances by HPLC (low level): Δ8-Tetrahydrocannabinol (25° C./60% RH, 2 months): 5 ppm
Related substances by HPLC (low level): Δ9-Tetrahydrocannabinol (25° C./60% RH, 2 months): 27 ppm
Related substances by HPLC: 4-Monobromo-CBD (25° C./60% RH, 2 months): <0.03% (0.02%)
Related substances by HPLC: Olivetol (25° C./60% RH, 2 months): <0.03% (0.02%)
Related substances by HPLC: Sum of impurities, ≥0.05% (25° C./60% RH, 2 months): 0.15%
Related substances by HPLC: Δ8-Tetrahydrocannabinol (25° C./60% RH, 2 months): <0.02% (ND)
Related substances by HPLC: Δ9-Tetrahydrocannabinol (25° C./60% RH, 2 months): <0.02% (ND)
Appearance (25° C./60% RH, 3 months): Off-white
Assay by HPLC (25° C./60% RH, 3 months): 98.1%
Each unspecified impurity: RRT~1.983 (25° C./60% RH, 3 months): 0.05%
Each unspecified impurity: RRT~2.260 (25° C./60% RH, 3 months): 0.10%
Related substances by HPLC (low level): Δ8-Tetrahydrocannabinol (25° C./60% RH, 3 months): 8 ppm
Related substances by HPLC (low level): Δ9-Tetrahydrocannabinol (25° C./60% RH, 3 months): 13 ppm
Related substances by HPLC: 4-Monobromo-CBD (25° C./60% RH, 3 months): <0.03% (0.02%)
Related substances by HPLC: Olivetol (25° C./60% RH, 3 months): <0.03% (ND)
Related substances by HPLC: Sum of impurities, ≥0.05% (25° C./60% RH, 3 months): 0.15%
Related substances by HPLC: Δ8-Tetrahydrocannabinol (25° C./60% RH, 3 months): <0.02% (ND)
Related substances by HPLC: Δ9-Tetrahydrocannabinol (25° C./60% RH, 3 months): <0.02% (ND)
Appearance (40° C./75% RH, 0 month): White
Assay by HPLC (40° C./75% RH, 0 month): 99.9%
Each unspecified impurity: RRT~1.540 (40° C./75% RH, 0 month): 0.06%
Each unspecified impurity: RRT~1.690 (40° C./75% RH, 0 month): 0.11%
Related substances by HPLC (low level): Δ9-Tetrahydrocannabinol (40° C./75% RH, 0 month): 26 ppm
Related substances by HPLC: 4-Monobromo-CBD (40° C./75% RH, 0 month): <0.03% (0.02%)
Related substances by HPLC: Olivetol (40° C./75% RH, 0 month): <0.03% (ND)
Related substances by HPLC: Sum of impurities, ≥0.05% (40° C./75% RH, 0 month): 0.17%
Related substances by HPLC: Δ9-Tetrahydrocannabinol (40° C./75% RH, 0 month): <0.02% (ND)
Appearance (40° C./75% RH, 1 month): Yellow Powder
Assay by HPLC (40° C./75% RH, 1 month): 98.7%
Each unspecified impurity: RRT~1.928 (40° C./75% RH, 1 month): 0.06%
Each unspecified impurity: RRT~2.150 (40° C./75% RH, 1 month): 0.11%
Related substances by HPLC (low level): Δ8-Tetrahydrocannabinol (40° C./75% RH, 1 month): 7 ppm
Related substances by HPLC (low level): Δ9-Tetrahydrocannabinol (40° C./75% RH, 1 month): 28 ppm
Related substances by HPLC: 4-Monobromo-CBD (40° C./75% RH, 1 month): <0.03% (0.02)
Related substances by HPLC: Olivetol (40° C./75% RH, 1 month): <0.03% (ND)
Related substances by HPLC: Sum of impurities, ≥0.05% (40° C./75% RH, 1 month): 0.17%
Related substances by HPLC: Δ8-Tetrahydrocannabinol (40° C./75% RH, 1 month): <0.02% (ND)
Related substances by HPLC: Δ9-Tetrahydrocannabinol (40° C./75% RH, 1 month): <0.02% (ND)
Appearance (40° C./75% RH, 2 months): Off-White
Assay by HPLC (40° C./75% RH, 2 months): 99.6%
Each unspecified impurity: RRT~1.931 (40° C./75% RH, 2 months): 0.06%
Each unspecified impurity: RRT~2.151 (40° C./75% RH, 2 months): 0.07%
Related substances by HPLC (low level): Δ8-Tetrahydrocannabinol (40° C./75% RH, 2 months): 4 ppm
Related substances by HPLC (low level): Δ9-Tetrahydrocannabinol (40° C./75% RH, 2 months): 27 ppm
Related substances by HPLC: 4-Monobromo-CBD (40° C./75% RH, 2 months): <0.03% (0.02)
Related substances by HPLC: Olivetol (40° C./75% RH, 2 months): <0.03% (ND)
Related substances by HPLC: Sum of impurities, ≥0.05% (40° C./75% RH, 2 months): 0.13%
Related substances by HPLC: Δ8-Tetrahydrocannabinol (40° C./75% RH, 2 months): <0.02% (ND)
Related substances by HPLC: Δ9-Tetrahydrocannabinol (40° C./75% RH, 2 months): <0.02% (ND)
Appearance (40° C./75% RH, 3 months): Off-white
Assay by HPLC (40° C./75% RH, 3 months): 99.0%
Each unspecified impurity: RRT~1.982 (40° C./75% RH, 3 months): 0.05%
Each unspecified impurity: RRT~2.258 (40° C./75% RH, 3 months): 0.09%
Related substances by HPLC (low level): Δ8-Tetrahydrocannabinol (40° C./75% RH, 3 months): 8 ppm
Related substances by HPLC (low level): Δ9-Tetrahydrocannabinol (40° C./75% RH, 3 months): 17 ppm
Related substances by HPLC: 4-Monobromo-CBD (40° C./75% RH, 3 months): <0.03% (0.02)
Related substances by HPLC: Olivetol (40° C./75% RH, 3 months): <0.03% (ND)
Related substances by HPLC: Sum of impurities, ≥0.05% (40° C./75% RH, 3 months): 0.14%
Related substances by HPLC: Δ8-Tetrahydrocannabinol (40° C./75% RH, 3 months): <0.02% (ND)
Related substances by HPLC: Δ9-Tetrahydrocannabinol (40° C./75% RH, 3 months): <0.02% (ND)
Appearance (40° C./75% RH, 5 months): Beige/off-
Assay by HPLC (40° C./75% RH, 5 months): 98.6%
Each unspecified impurity: Methadienol deg-1 (40° C./75% RH, 5 months): deg-1: 0.03%
Each unspecified impurity: RRT~0.956 (40° C./75% RH, 5 months): 0.04%
Each unspecified impurity: RRT~1.918 (40° C./75% RH, 5 months): 0.05%
Related substances by HPLC (low level): Δ8-Tetrahydrocannabinol (40° C./75% RH, 5 months): 36 ppm
Related substances by HPLC (low level): Δ9-Tetrahydrocannabinol (40° C./75% RH, 5 months): 24 ppm
Related substances by HPLC: 4-Monobromo-CBD (40° C./75% RH, 5 months): <0.03% (ND)
Related substances by HPLC: Olivetol (40° C./75% RH, 5 months): <0.03% (ND)
Related substances by HPLC: Sum of impurities, ≥0.05% (40° C./75% RH, 5 months): 0.05%
Related substances by HPLC: Δ8-Tetrahydrocannabinol (40° C./75% RH, 5 months): <0.02% (ND)
Related substances by HPLC: Δ9-Tetrahydrocannabinol (40° C./75% RH, 5 months): <0.02% (ND)
